Literature values, collected in US12605354B2, “Azelaic acid esters in the treatment or prevention of dyslipidemia and associated conditions” (NEW FRONTIER LABS, LLC, priority 2020, dated 2026).
Like-named read-outs stand apart in the source and are kept apart here.

Tests used:
[1] = test system: 4750 prediabetic subjects; conditions: cited from earlier work
statin-naïve individuals = conditions: 1 year (T2D), reference 52, cited from earlier work; for LDL/HDL, decrease: statin-naïve individuals
[2] = cited from earlier work; for Hypoglycemia: reference 51
[3] = 15-year study [49]; cited from earlier work
[4] = test system: 16 subjects with Type II diabetes; conditions: cited from earlier work
[5] = 8 weeks (T2D risk), reference 48
[6] = meta-analysis, trials of at least 8 weeks, compared to placebo or no treatment [48]
[7] = 28-day study in 16 subjects with Type II diabetes [47]

CN(C)C(=N)N=C(N)N [Metformin, metformin]
Fasting insulin, decrease [1, 5]: 14.4% decrease | Fasting plasma glucose, decrease [1, 5]: 4.5% decrease | change of LDL [1, 6]: −5.6% | change of fasting glucose [1, 6]: −4.5% | change of fasting insulin [1, 6]: −14.4% | increase of HDL [1, 6]: 5.0% | LDL/HDL, decrease (statin-naïve individuals): 11.7% decrease | LDL/HDL, decrease (statin-naïve individuals; listed as metformin): 11.7% | HDL, increase (statin-naïve individuals): 5% increase | LDL, decrease (statin-naïve individuals): 5.6% decrease | patients who cannot tolerate metformin at all [2, 53]: 5% | users with severe gastrointestinal side effects [2, 53]: 1 of 4 | Hypoglycemia ([2]; multiple studies): infrequent event | Hypoglycemia ([2]; multiple studies, listed as metformin): Neither metformin nor DEA administration as presented herein induced hypoglycemia | Side effects ([2]; multiple studies, reference 53): severe gastrointestinal effects | reduction of the incidence of diabetes compared to placebo [3]: 17% | Cholesterol/HDL, decrease ([4]; 4 weeks (T2D), reference 47): 9.2% decrease | fasting glucose [4, 7]: reduced fasting glucose | insulin levels [4, 7]: no effect on insulin levels
